Measurements from BindingDB's records for doi:10.1016/j.bmc.2012.07.032 (Takeda Pharmaceutical, 2012).

Experiment: Inhibition of VEGFR2 in HUVEC assessed as reduction of VGF-stimulated cell proliferation after 5 days

IC50: 1.2 nM
Compound: CN(c1ccc(F)c(NC(=O)c2cccc(OC(C)(C)C#N)c2Cl)c1)c1ccc2nc(NC(=O)C3CC3)sc2n1
